# Test results published in article PMC5515969, “Effects of 31 FDA approved small-molecule kinase inhibitors on isolated rat liver mitochondria” (Archives of Toxicology, 2016).
# Where two headings read alike, the source gives them in different places.
# Legend:
# RCC III = RCC III activity in submitochondrial particles; type: biochemical, rat; parameters: key to RCC III at 100XCmax: activity relative to DMSO-treated controls (control set as 1 = 100%)
# Procedure, shortened: (§1)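 Rat submitochondrial particles (1 mg/ml) were treated with test compounds for 15 min. RCC IV, like RCC III, was monitored at 550 nm every 10 s for 2 min, and RCC I/V at 340 nm each minute for 6 min. DMSO samples defined unit activity.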
# RCC II = target: T1, RCC II (Rattus norvegicus, UniProt P21913+Q641Z9+Q6PCT8+Q920L2); assay: RCC II activity in submitochondrial particles; type: biochemical; parameters: key: activity relative to DMSO-treated controls (control set as 1 = 100%)
# T1 construct: Submitochondrial particles were prepared by subjecting the intact mitochondria to three successive freeze–thaw cycles; from tissue; host or cells: rat liver mitochondria, used as submitochondrial particles
# T1 sequence (Q920L2 35-656): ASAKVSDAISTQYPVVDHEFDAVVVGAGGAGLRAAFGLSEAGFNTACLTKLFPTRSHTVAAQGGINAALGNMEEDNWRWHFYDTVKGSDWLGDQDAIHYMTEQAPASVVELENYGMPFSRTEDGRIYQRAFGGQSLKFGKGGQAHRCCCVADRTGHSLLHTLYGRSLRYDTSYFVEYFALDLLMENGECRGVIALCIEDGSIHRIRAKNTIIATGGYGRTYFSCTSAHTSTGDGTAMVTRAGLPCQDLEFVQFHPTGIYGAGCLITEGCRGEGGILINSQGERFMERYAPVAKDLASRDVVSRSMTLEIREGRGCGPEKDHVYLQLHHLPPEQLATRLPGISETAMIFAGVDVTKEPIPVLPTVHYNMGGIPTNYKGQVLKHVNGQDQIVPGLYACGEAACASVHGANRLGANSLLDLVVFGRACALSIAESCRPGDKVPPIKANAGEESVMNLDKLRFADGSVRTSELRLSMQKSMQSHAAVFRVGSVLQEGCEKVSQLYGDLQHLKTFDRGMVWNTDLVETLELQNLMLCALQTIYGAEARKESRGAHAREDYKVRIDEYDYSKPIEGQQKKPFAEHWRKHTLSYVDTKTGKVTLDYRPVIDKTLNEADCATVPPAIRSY
# T1 sequence (P21913 31-282): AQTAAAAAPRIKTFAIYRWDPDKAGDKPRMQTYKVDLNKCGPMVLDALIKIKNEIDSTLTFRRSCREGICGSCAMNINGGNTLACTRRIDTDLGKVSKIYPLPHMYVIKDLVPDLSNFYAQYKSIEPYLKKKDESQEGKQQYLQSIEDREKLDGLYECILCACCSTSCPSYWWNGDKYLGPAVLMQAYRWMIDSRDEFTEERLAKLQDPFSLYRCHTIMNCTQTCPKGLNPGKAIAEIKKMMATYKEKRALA
# T1 sequence (Q641Z9 1-169): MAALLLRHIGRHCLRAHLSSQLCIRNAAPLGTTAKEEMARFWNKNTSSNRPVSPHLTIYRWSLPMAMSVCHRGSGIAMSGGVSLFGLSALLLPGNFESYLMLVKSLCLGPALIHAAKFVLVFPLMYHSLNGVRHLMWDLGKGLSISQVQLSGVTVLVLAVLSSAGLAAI
# T1 sequence (Q6PCT8 57-159): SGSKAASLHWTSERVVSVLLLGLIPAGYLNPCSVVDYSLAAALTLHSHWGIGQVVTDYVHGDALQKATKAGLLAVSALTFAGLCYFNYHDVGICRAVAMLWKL
# Procedure, shortened: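 Activity relative to DMSO (set as 1) after 15-min exposure of submitochondrial particles (1 mg/ml) to compound. RCC I is defined as rotenone-sensitive activity and RCC II is followed at 600 nm over 6 min.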
# [1] = cited from earlier work
# [2] = tested on: isolated rat liver mitochondria; conditions: positive control alamethicin treated samples
# RCC V = RCC V activity in submitochondrial particles; type: biochemical, rat; for RCC V at 5XCmax: key: 0 indicates that the drug had no effects (negative)
# Procedure, shortened: as §1
# [3] = tested on: isolated rat liver mitochondria; assay: Mitochondrial ROS production (CM-H2DCFDA); conditions: DMSO treated samples set as 1
# [4] = tested on: isolated rat liver mitochondria; assay: Mitochondrial oxygen consumption (glutamate/malate or succinate driven, state 4 and state 3); type: biochemical; conditions: DMSO treated samples set as 1; for State 3 respiration driven by succinate at 10XCmax: key: 0 indicates that the drug had no effects (negative); for State 3 respiration driven by succinate at 1XCmax: key: 0 indicates that the drug had no effects (negative)
# Procedure, shortened: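 Oxygen uptake on glutamate/malate or on succinate defined state 4; ADP added 3 min later gave state 3. Mitochondria isolated from rat liver by differential centrifugation, adjusted to 1 mg/ml and pretreated 5 min with inhibitor (0.1% DMSO final). Values relative to DMSO control, set to 1.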
# [5] = ref product labeling, cited from earlier work
# [6] = tested on: isolated rat liver mitochondria; assay: Mitochondrial swelling (absorbance at 535 nm); type: biochemical; conditions: difference in signal between KI and DMSO treated samples at the end of experiments; for Swelling 5XCmax: key: 0 indicates that the drug had no effects (negative)
# RCC I = RCC I activity in submitochondrial particles; type: biochemical, rat; parameters: key to RCC I at 10XCmax / RCC I at 100XCmax / RCC I at 50XCmax / RCC I at 30XCmax / RCC I at 20XCmax: activity relative to DMSO-treated controls (control set as 1 = 100%)
# Procedure, shortened: as §1
# [7] = 100-fold Cmax, 15 min, DMSO-treated = 100
# [8] = relative to DMSO treated samples
compound,measurement,setting,value
COc1cc(Nc2c(C#N)cnc3cc(OCCCN4CCN(C)CC4)c(OC)cc23)c(Cl)cc1Cl [Bosutinib],RCC activity III,RCC III; [7],101.81 ± 4.43 % of control
same,RCC III at 100XCmax,RCC III; [8],0
same,RCC II at 1.0XCmax,RCC II; [8],0
same,RCC II at 2.5XCmax,RCC II; [8],0
same,RCC II at 5XCmax,RCC II; [8],0
same,RCC II at 10XCmax,RCC II; [8],0
same,RCC II at 20XCmax,RCC II; [8],0
same,RCC II at 30XCmax,RCC II; [8],0
same,RCC II at 50XCmax,RCC II; [8],0
same,RCC II at 100XCmax,RCC II; [8],0
same,DILI potential (based on labeling),"[1]; 1 = DILI positive, 0 = negative, ref product labeling",1
same,Labeling for DILI,"[1]; BBW: black box warning, W&P: Warnings and Precautions, ref product labeling",W&P: ALT↑
same,labeling for DILI,"[1]; W&P warnings and precautions, BBW black box warnings, ref FDA product labeling",W&P: ALT↑/monitoring
same,DILI potential (based on labeling),[1]; ref FDA product labeling,1
same,Cytochrome c release 1XCmax,[2],0
same,Cytochrome c release 2.5XCmax,[2],0
same,Cytochrome c release 5XCmax,[2],0
same,Cytochrome c release 10XCmax,[2],0
same,Cytochrome c release 20XCmax,[2],0
same,Cytochrome c release 30XCmax,[2],0
same,Cytochrome c release 50XCmax,[2],0
same,Cytochrome c release 100XCmax,[2],0
same,RCC V at 5XCmax,RCC V; [8],0
same,RCC V at 50XCmax,RCC V; [8],0
same,RCC activity V,RCC V; [7],91.53 ± 6.49 % of control
same,ROS measured by CM-H2DCFDA at 1XCmax,[3],0
same,ROS measured by CM-H2DCFDA at 2.5XCmax,[3],0
same,ROS measured by CM-H2DCFDA at 5XCmax,[3],0
same,ROS measured by CM-H2DCFDA at 10XCmax,[3],0
same,ROS measured by CM-H2DCFDA at 20XCmax,[3],0
same,ROS measured by CM-H2DCFDA at 30XCmax,[3],0
same,ROS measured by CM-H2DCFDA at 50XCmax,[3],0
same,ROS measured by CM-H2DCFDA at 100XCmax,[3],0
same,State 3 respiration driven by glutamate/malate at 1XCmax,[4],0
same,State 3 respiration driven by succinate at 1XCmax,[4],0
same,State 4 respiration driven by glutamate/malate at 1XCmax,[4],0
same,State 4 respiration driven by succinate at 1XCmax,[4],0
same,State 3 respiration driven by glutamate/malate at 2.5XCmax,[4],0
same,State 3 respiration driven by succinate at 2.5XCmax,[4],0
same,State 4 respiration driven by glutamate/malate at 2.5XCmax,[4],0
same,State 4 respiration driven by succinate at 2.5XCmax,[4],0
same,State 3 respiration driven by glutamate/malate at 5XCmax,[4],0
same,State 3 respiration driven by succinate at 5XCmax,[4],0
same,State 4 respiration driven by glutamate/malate at 5XCmax,[4],0
same,State 4 respiration driven by succinate at 5XCmax,[4],0
same,State 3 respiration driven by glutamate/malate at 10XCmax,[4],0
same,State 3 respiration driven by succinate at 10XCmax,[4],0
same,State 4 respiration driven by glutamate/malate at 10XCmax,[4],0
same,State 4 respiration driven by succinate at 10XCmax,[4],0
same,State 3 respiration driven by glutamate/malate at 20XCmax,[4],0
same,State 3 respiration driven by succinate at 20XCmax,[4],0
same,State 4 respiration driven by glutamate/malate at 20XCmax,[4],0
same,State 4 respiration driven by succinate at 20XCmax,[4],0
same,State 3 respiration driven by glutamate/malate at 30XCmax,[4],0
same,State 3 respiration driven by succinate at 30XCmax,[4],0
same,State 4 respiration driven by glutamate/malate at 30XCmax,[4],0
same,State 4 respiration driven by succinate at 30XCmax,[4],0
same,State 3 respiration driven by glutamate/malate at 50XCmax,[4],0
same,State 3 respiration driven by succinate at 50XCmax,[4],0
same,State 4 respiration driven by glutamate/malate at 50XCmax,[4],0
same,State 4 respiration driven by succinate at 50XCmax,[4],0
same,State 3 respiration driven by glutamate/malate at 100XCmax,[4],0
same,State 3 respiration driven by succinate at 100XCmax,[4],0
same,State 4 respiration driven by glutamate/malate at 100XCmax,[4],0
same,State 4 respiration driven by succinate at 100XCmax,[4],0
same,Cmax,[5]; therapeutic maximal blood concentration,200 ng/mL
same,Swelling 1XCmax,[6],0
same,Swelling 2.5XCmax,[6],0
same,Swelling 5XCmax,[6],0
same,Swelling 10XCmax,[6],0
same,Swelling 20XCmax,[6],0
same,Swelling 30XCmax,[6],0
same,Swelling 50XCmax,[6],0
same,Swelling 100XCmax,[6],0
same,RCC I at 10XCmax,RCC I; [8],0
same,RCC activity I,RCC I; [7],88.03 ± 3.01 % of control
same,RCC I at 100XCmax,"RCC I; 100XCmax, relative to DMSO treated samples",88.03±3.01
CC(=O)Nc1cccc(-n2c(=O)n(C3CC3)c(=O)c3c(Nc4ccc(I)cc4F)n(C)c(=O)c(C)c32)c1 [Trametinib],RCC III at 100XCmax,RCC III,0
same,RCC II at 1.0XCmax,RCC II; DMSO treated samples set as 1,0
same,RCC II at 2.5XCmax,RCC II; DMSO treated samples set as 1,0
same,RCC II at 5XCmax,RCC II; DMSO treated samples set as 1,0
same,RCC II at 10XCmax,RCC II; DMSO treated samples set as 1,0
same,RCC II at 20XCmax,RCC II; DMSO treated samples set as 1,0
same,RCC II at 30XCmax,RCC II; DMSO treated samples set as 1,0
same,RCC II at 50XCmax,RCC II; DMSO treated samples set as 1,0
same,RCC II at 100XCmax,RCC II; DMSO treated samples set as 1,0
same,DILI potential (based on labeling),"[1]; 1 DILI positive, 0 negative according to labeling, ref product labeling",0
same,DILI potential (based on labeling),[1]; ref FDA product labeling,0
same,Cytochrome c release 1XCmax,[2],0
same,Cytochrome c release 2.5XCmax,[2],0
same,Cytochrome c release 5XCmax,[2],0
same,Cytochrome c release 10XCmax,[2],0
same,Cytochrome c release 20XCmax,[2],0
same,Cytochrome c release 30XCmax,[2],0
same,Cytochrome c release 50XCmax,[2],0
same,Cytochrome c release 100XCmax,[2],0
same,RCC V at 5XCmax,RCC V; DMSO treated samples set as 1,0
same,RCC V at 50XCmax,RCC V; DMSO treated samples set as 1,0
same,ROS measured by CM-H2DCFDA at 1XCmax,[3],0
same,ROS measured by CM-H2DCFDA at 2.5XCmax,[3],0
same,ROS measured by CM-H2DCFDA at 5XCmax,[3],0
same,ROS measured by CM-H2DCFDA at 10XCmax,[3],0
same,ROS measured by CM-H2DCFDA at 20XCmax,[3],0
same,ROS measured by CM-H2DCFDA at 30XCmax,[3],0
same,ROS measured by CM-H2DCFDA at 50XCmax,[3],0
same,ROS measured by CM-H2DCFDA at 100XCmax,[3],0
same,State 3 respiration driven by glutamate/malate at 1XCmax,[4],0
same,State 3 respiration driven by succinate at 1XCmax,[4],0
same,State 4 respiration driven by glutamate/malate at 1XCmax,[4],0
same,State 4 respiration driven by succinate at 1XCmax,[4],0
same,State 3 respiration driven by glutamate/malate at 2.5XCmax,[4],0
same,State 3 respiration driven by succinate at 2.5XCmax,[4],0
same,State 4 respiration driven by glutamate/malate at 2.5XCmax,[4],0
same,State 4 respiration driven by succinate at 2.5XCmax,[4],0
same,State 3 respiration driven by glutamate/malate at 5XCmax,[4],0
same,State 3 respiration driven by succinate at 5XCmax,[4],0
same,State 4 respiration driven by glutamate/malate at 5XCmax,[4],0
same,State 4 respiration driven by succinate at 5XCmax,[4],0
same,State 3 respiration driven by glutamate/malate at 10XCmax,[4],0
same,State 3 respiration driven by succinate at 10XCmax,[4],0
same,State 4 respiration driven by glutamate/malate at 10XCmax,[4],0
same,State 4 respiration driven by succinate at 10XCmax,[4],0
same,State 3 respiration driven by glutamate/malate at 20XCmax,[4],0
same,State 3 respiration driven by succinate at 20XCmax,[4],0
same,State 4 respiration driven by glutamate/malate at 20XCmax,[4],0
same,State 4 respiration driven by succinate at 20XCmax,[4],0
same,State 3 respiration driven by glutamate/malate at 30XCmax,[4],0
same,State 3 respiration driven by succinate at 30XCmax,[4],0
same,State 4 respiration driven by glutamate/malate at 30XCmax,[4],0
same,State 4 respiration driven by succinate at 30XCmax,[4],0
same,State 3 respiration driven by glutamate/malate at 50XCmax,[4],0
same,State 3 respiration driven by succinate at 50XCmax,[4],0
same,State 4 respiration driven by glutamate/malate at 50XCmax,[4],0
same,State 4 respiration driven by succinate at 50XCmax,[4],0
same,State 3 respiration driven by glutamate/malate at 100XCmax,[4],0
same,State 3 respiration driven by succinate at 100XCmax,[4],0
same,State 4 respiration driven by glutamate/malate at 100XCmax,[4],0
same,State 4 respiration driven by succinate at 100XCmax,[4],0
same,Cmax,"[5]; read-out: Cmax at µM, human therapeutic maximal blood concentration",0.04 µM
same,Swelling 1XCmax,[6],0
same,Swelling 2.5XCmax,[6],0
same,Swelling 5XCmax,[6],0
same,Swelling 10XCmax,[6],0
same,Swelling 20XCmax,[6],0
same,Swelling 30XCmax,[6],0
same,Swelling 50XCmax,[6],0
same,Swelling 100XCmax,[6],0
same,RCC I at 10XCmax,RCC I; DMSO treated samples set as 1,0
